Measurements reported in paper PMC5105127, “16-nor Limonoids from Harrisonia perforata as promising selective 11β-HSD1 inhibitors” (Scientific Reports, 2016).
Like-named read-outs stand apart in the source and are kept apart here.

How the values were obtained:
Type in all cases: biochemical
murine 11β-HSD1 = biological target: T1, murine 11β-HSD1 (Mus musculus, UniProt P50172); test: scintillation proximity assay (SPA), murine 11β-HSD1
T1 construct: The full-length cDNAs of human or murine11β-HSD1 and 11β-HSD2 were isolated from the cDNA libraries; made in house; host or cells: HEK-293, stably transfected with a pcDNA3 plasmid; microsomal fraction
T1 sequence (P50172 whole entry): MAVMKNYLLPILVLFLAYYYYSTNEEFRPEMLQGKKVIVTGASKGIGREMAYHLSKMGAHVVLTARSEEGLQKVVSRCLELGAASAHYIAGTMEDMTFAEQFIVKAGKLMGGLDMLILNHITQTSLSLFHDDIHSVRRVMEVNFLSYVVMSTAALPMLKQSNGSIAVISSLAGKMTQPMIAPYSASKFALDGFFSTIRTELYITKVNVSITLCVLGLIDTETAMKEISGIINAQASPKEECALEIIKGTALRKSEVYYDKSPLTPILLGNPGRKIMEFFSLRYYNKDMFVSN
Method: The inhibitory activity of compounds 1–3 on murine and human 11β-HSD1 was evaluated using the scintillation proximity assay (SPA)[25]. […] We further used the intact cell transfected with human HSD11B1 and HSD11B2 to screen their bioactivities. […] The inhibitory activities of the compounds on human or mouse 11β-HSD1 and 11β-HSD2 were determined using the scintillation proximity assay (SPA). The full-length cDNAs of human or murine11β-HSD1 and 11β-HSD2 were isolated from the cDNA libraries provided by NIH Mammalian Gene Collection. The cDNAs were cloned into pcDNA3 expression vectors. HEK-293 cells were transfected with the pcDNA3-derived expression plasmid and selected by cultivation in the presence of 700 μg/ml of G418. The microsomal fraction overexpressing 11β-HSD1 or 11β-HSD2 was prepared from the HEK-293 cells, which were stably transfected with 11β-HSD1 or 11β-HSD2. The fraction was then used as the enzyme source for SPA. Microsomes containing human or mouse 11β-HSD1 were incubated with NADPH and [^3H] cortisone. The product, [^3H] cortisol, was specifically captured by a monoclonal antibody coupled to protein A-coated SPA beads. The 11β-HSD2 screening was performed by incubating 11β-HSD2 microsomes with [^3H] cortisol and NAD + and monitoring substrate disappearance. All tests were done twice with glycyrrhizinic acid as a positive control.

murine 11β-HSD2 = biological target: T2, murine 11β-HSD2 (Mus musculus, UniProt P51661); test: scintillation proximity assay (SPA), murine 11β-HSD2
T2 construct: The full-length cDNAs of human or murine11β-HSD1 and 11β-HSD2 were isolated from the cDNA libraries; made in house; host or cells: HEK-293, stably transfected with a pcDNA3 plasmid; microsomal fraction
T2 sequence (P51661 1-386): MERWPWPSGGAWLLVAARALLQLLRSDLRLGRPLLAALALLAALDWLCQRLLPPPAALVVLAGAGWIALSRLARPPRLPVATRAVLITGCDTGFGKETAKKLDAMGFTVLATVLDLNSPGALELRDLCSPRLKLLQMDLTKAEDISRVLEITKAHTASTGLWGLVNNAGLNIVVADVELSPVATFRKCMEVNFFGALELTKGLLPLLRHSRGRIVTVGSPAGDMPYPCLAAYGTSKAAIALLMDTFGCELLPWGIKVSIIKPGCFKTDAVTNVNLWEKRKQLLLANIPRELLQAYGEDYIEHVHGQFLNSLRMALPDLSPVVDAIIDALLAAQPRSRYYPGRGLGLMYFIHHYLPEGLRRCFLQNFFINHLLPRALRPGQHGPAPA
Method: (§1) The inhibitory activity of compounds 1–3 on murine and human 11β-HSD1 was evaluated using the scintillation proximity assay (SPA)[25]. […] We further used the intact cell transfected with human HSD11B1 and HSD11B2 to screen their bioactivities.
(§2) The inhibitory activities of the compounds on human or mouse 11β-HSD1 and 11β-HSD2 were determined using the scintillation proximity assay (SPA). The full-length cDNAs of human or murine11β-HSD1 and 11β-HSD2 were isolated from the cDNA libraries provided by NIH Mammalian Gene Collection. The cDNAs were cloned into pcDNA3 expression vectors. HEK-293 cells were transfected with the pcDNA3-derived expression plasmid and selected by cultivation in the presence of 700 μg/ml of G418. The microsomal fraction overexpressing 11β-HSD1 or 11β-HSD2 was prepared from the HEK-293 cells, which were stably transfected with 11β-HSD1 or 11β-HSD2. The fraction was then used as the enzyme source for SPA. Microsomes containing human or mouse 11β-HSD1 were incubated with NADPH and [^3H] cortisone. The product, [^3H] cortisol, was specifically captured by a monoclonal antibody coupled to protein A-coated SPA beads. The 11β-HSD2 screening was performed by incubating 11β-HSD2 microsomes with [^3H] cortisol and NAD + and monitoring substrate disappearance. […] IC50 (X + SD, n = 2) values were calculated by using Prism Version 4 (GraphPad Software, SanDiego, CA).

human 11β-HSD1 = biological target: T3, human 11β-HSD1 (Homo sapiens, UniProt P28845); test: scintillation proximity assay (SPA), human 11β-HSD1
T3 construct: The full-length cDNAs of human or murine11β-HSD1 and 11β-HSD2 were isolated from the cDNA libraries; made in house; host or cells: HEK-293, stably transfected with a pcDNA3 plasmid; microsomal fraction
T3 sequence (P28845 whole entry): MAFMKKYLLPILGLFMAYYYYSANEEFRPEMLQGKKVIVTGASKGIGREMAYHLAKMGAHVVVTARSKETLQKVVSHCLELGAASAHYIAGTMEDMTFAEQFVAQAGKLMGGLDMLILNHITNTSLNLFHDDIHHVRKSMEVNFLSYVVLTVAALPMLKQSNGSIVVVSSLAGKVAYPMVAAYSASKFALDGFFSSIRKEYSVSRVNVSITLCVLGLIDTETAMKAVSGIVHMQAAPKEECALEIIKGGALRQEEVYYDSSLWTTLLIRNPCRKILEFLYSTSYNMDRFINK
Method: as §1, §2

human 11β-HSD2 = test: scintillation proximity assay (SPA), human 11β-HSD2; settings: human 11β-HSD2 vs human 11β-HSD1
Method: as §1, §2

Structure (SMILES): CC1(C)OC(=O)C=C[C@]2(C)O[C@@]3(CC4=C5C(=O)O[C@@H](c6ccoc6)[C@]5(C)CC[C@H]4O3)C[C@H]12 [Compound 1, Harperspinoid A]
- inhibition at 0.1 µM (murine 11β-HSD1; 0.1 μM, read-out: Inhibition rate on murine 11β-HSD1): 22.8%
- inhibition at 0.3 µM (murine 11β-HSD1; 0.3 μM, read-out: Inhibition rate on murine 11β-HSD1): 35.1%
- inhibition at 1 µM (murine 11β-HSD1; 1 μM, read-out: Inhibition rate on murine 11β-HSD1): 55.8%
- inhibition at 3 µM (murine 11β-HSD1; 3 μM, read-out: Inhibition rate on murine 11β-HSD1): 79.4%
- inhibition at 10 µM (murine 11β-HSD1; 10 μM, read-out: Inhibition rate on murine 11β-HSD1): 90.5%
- IC50 (murine 11β-HSD1; SPA, text: intact CHOP cells transfected with murine HSD11B1, read-out: IC50, inhibition of murine 11β-HSD1): 600 nM
- inhibition of murine 11β-HSD2 activity (murine 11β-HSD2; at 1 mM): did not inhibit the enzyme at all
- SI (selectivity against murine 11β-HSD2) (murine 11β-HSD2; murine 11β-HSD2 vs murine 11β-HSD1): > 1661
- inhibitory activity against human 11β-HSD1 enzyme (human 11β-HSD1; in words): low inhibitory activity

Structure (SMILES): CC1=CC23C(=O)OC(C)(C)C1CC2(O)CC1=C2C(=O)OC(c4ccoc4)C2(C)CCC13 (centres unmarked) [Compound 3, Harperforin G]
- IC50 (human 11β-HSD1; SPA, text: intact cell transfected with human HSD11B1, whole cell assay, read-out: IC50, inhibition of human 11β-HSD1): 580 nM
- SI (selectivity against human 11β-HSD2) (human 11β-HSD2): > 174

Structure (SMILES): CC1(C)[C@@H](O[C@H]2O[C@H](C(=O)O)[C@@H](O)[C@H](O)[C@H]2O[C@@H]2O[C@H](C(=O)O)[C@@H](O)[C@H](O)[C@H]2O)CC[C@]2(C)[C@H]3C(=O)C=C4[C@@H]5C[C@@](C)(C(=O)O)CC[C@]5(C)CC[C@@]4(C)[C@]3(C)CC[C@@H]12 [Glycyrrhizic acid, reference compound]
- inhibition at 0.001 µM (murine 11β-HSD1; 1 nM, read-out: Inhibition rate on murine 11β-HSD1): 21.2%
- inhibition at 0.01 µM (murine 11β-HSD1; 10 nM, read-out: Inhibition rate on murine 11β-HSD1): 51.9%
- inhibition at 0.1 µM (murine 11β-HSD1; 100 nM, read-out: Inhibition rate on murine 11β-HSD1): 86.8%
